How the values were obtained:
H1975 lung cancer cells = test: EdU proliferation of tumor cells treated with CBD; type: cell-based; conditions: CBD 5, 10, 20 μM, 24 h
Method: (§1) Different types of tumor cells (RKO colorectal cancer cells, H1975 lung cancer cells, and A549 lung cancer cells) in the logarithmic growth phase were respectively inoculated into a 96-well plate at an inoculum density of 5×10^3 per well, and then, the tumor cells were placed into an incubator at 37° C. and 5% CO2 for incubation for 24 h; a CBD mother solution (10 mM) was respectively diluted with culture medium to 5 μM, 10 μM, or 20 μM, and the culture medium in the 96-well plate was aspirated off, 100 μL of culture medium containing different concentrations of CBD was added to each well, a control well (0 μM CBD) was set, and the cells were continuously incubated for 24 h. After the culture was completed, the quantity of proliferating tumor cells was detected with an EdU kit (Beyotime, C0085S). Finally, a high-content imaging analysis system was used for photographing and the data were counted.

A549 lung cancer cells = test: EdU proliferation of tumor cells treated with CBD; type: cell-based; conditions: CBD 5, 10, 20 μM, 24 h
Method: as §1

[1] = system: RKO colorectal cancer cells; test: EdU proliferation of tumor cells treated with CBD; type: cell-based; conditions: CBD 5, 10, 20 μM, 24 h
Method: as §1

MC38 colon cancer cells = test: MC38 subcutaneous tumor model in C57BL/6 mice, Embodiment 5; type: in vivo; conditions: for Tumor volume: CBD 100 mg/kg, PAR 5 mg/kg, vitamin E 50 mg/kg
Method: MC38 colon cancer cells were inoculated into 6-week-old female C57BL/6 mice (1×10^6 cells/mouse) to establish a subcutaneous tumor model. After the tumor volume reached 50 mm^3, the mice were grouped and administered with the following pharmaceutical combinations: (1) control group (no drug administration), (2) anti-PD-1 ([…] per time) group, (3) vitamin E(α-tocopherol) (50 mg/kg) group, (4) CBD (100 mg/kg) group, (5) CBD (100 mg/kg)+vitamin E(α-tocopherol) (50 mg/kg) group, (6) PAR (5 mg/kg) group, (7) PAR (5 mg/kg)+vitamin E(α-tocopherol) (50 mg/kg) group, (8) CBD (100 mg/kg)+PAR (5 mg/kg) group, and (9) PAR (5 mg/kg)+CBD (100 mg/kg)+vitamin E(α-tocopherol) (50 mg/kg) group.
The tumor weight, tumor volume, and mouse body weight were monitored once every 2 days. The tumor volume was calculated as follows: tumor volume (mm^3)=0.5×(length)×(width)^2. The mice were sacrificed 14 days after drug administration, and the tumors were dissected.
The dissolving mode of the pharmaceutical composition was as follows: the pharmaceutical composition was dissolved in 10% DMSO+corn oil, the mice were gavaged with the pharmaceutical composition at 100 μl/mice, and the mice in the control group were injected with the same volume of the solvent.

[2] = system: PD-L1 on HCT116 colon cancer cell membrane; test: PD-L1 on cell membrane by flow cytometry; type: cell-based; conditions: concentration-dependent 5, 10, 20 μM, 24 h
Method: (§2) • (1) Different types of tumor cells (RKO, HCT116 and HT29 colon cancer cells, and A549, H1975 and H460 lung cancer cells) in the logarithmic growth phase were respectively inoculated on a 6-well plate at an inoculum density of 2.5×10^5 cells/well with 2 mL/well and then placed in a cell incubator overnight incubation. The culture mixture was removed, CBD at different concentrations (0 μM, 5 μM, 10 μM, and 20 μM) was added for treatment for 24 h, the supernatant was removed, and the cells were washed with PBS 2 times, digested with pancreatin, centrifuged at 300×g and 4° C. for 5 min, and collected. The cells were washed with precooled PBS 2 times, centrifuged at 300×g and 4° C. for 5 min, and collected. The cells were washed 2 times with precooled PBS, 100 μL of PBS was added to resuspend the cells, an anti-PD-L1-Alexa Fluor 647 antibody was added, the cells were incubated at room temperature for 30 min and centrifuged at 300×g and 4° C. for 5 min, 300 μL of PBS was added to resuspend the cells in a flow tube, and an Alexa Fluor 647 signal was detected from the sample using a flow cytometer (excitation/emission wavelength of 647 nm/666 nm). • (2) The colorectal cancer cells (RKO) in the logarithmic growth phase were inoculated into a 6-well plate at a density of 2.5×10^5 cells/well, with a 2 mL volume of the suspension in each well. The plate was placed into a cell incubator for incubation overnight, the culture mixture was removed, 20 μM CBD was added for 12 h, the supernatant was removed, PBS was used for washing 2 times, paraformaldehyde was added for fixing for 15 min, 5% BSA was added for fixing for 1 h, PBST was used for washing 2 times, a PD-L1 antibody was added overnight incubation, a red fluorescent antibody was added for incubation at room temperature for 1 h, DAPI was added for staining for 10 min, and finally, a laser scanning confocal microscope was used for photographing and analysis. 4. Research of CBD on Enhancing In Vitro Killing of Tumor Cells by T Cells

[3] = system: PD-L1 on RKO colon cancer cell membrane; test: PD-L1 on cell membrane by flow cytometry; type: cell-based; conditions: concentration-dependent 5, 10, 20 μM, 24 h
Method: as §2

[4] = system: PD-L1 on A549 lung cancer cell membrane; test: PD-L1 on cell membrane by flow cytometry; type: cell-based; conditions: concentration-dependent 5, 10, 20 μM, 24 h
Method: as §2

[5] = system: PD-L1 on H460 lung cancer cell membrane; test: PD-L1 on cell membrane by flow cytometry; type: cell-based; conditions: concentration-dependent 5, 10, 20 μM, 24 h
Method: as §2

[6] = system: PD-L1 on H1975 lung cancer cell membrane; test: PD-L1 on cell membrane by flow cytometry; type: cell-based; conditions: concentration-dependent 5, 10, 20 μM, 24 h
Method: as §2

[7] = system: PD-L1 on HT29 colon cancer cell membrane; test: PD-L1 on cell membrane by flow cytometry; type: cell-based; conditions: concentration-dependent 5, 10, 20 μM, 24 h
Method: as §2

C=C(C)[C@@H]1CCC(C)=C[C@H]1c1c(O)cc(CCCCC)cc1O [CBD, cannabidiol]
toxicity to tumor cells (proliferation, EdU fluorescence intensity) (H1975 lung cancer cells): not significantly toxic | toxicity to tumor cells (proliferation, EdU fluorescence intensity) (A549 lung cancer cells): not significantly toxic | toxicity to tumor cells (proliferation, EdU fluorescence intensity) [1]: not significantly toxic | Tumor volume (MC38 colon cancer cells; Day 0): 0 mm^3 | Tumor volume (MC38 colon cancer cells; Day 4): 63.99 mm^3 | Tumor volume (MC38 colon cancer cells; Day 6): 113.24 mm^3 | Tumor volume (MC38 colon cancer cells; Day 8): 120.48 mm^3 | Tumor volume (MC38 colon cancer cells; Day 10): 176.51 mm^3 | Tumor volume (MC38 colon cancer cells; Day 12): 241.75 mm^3 | Tumor volume (MC38 colon cancer cells; Day 14): 314.83 mm^3 | Tumor volume (MC38 colon cancer cells; Day 16): 359.72 mm^3 | therapeutic / tumor inhibition effect in words (MC38 colon cancer cells; normal mice, Embodiment 5, comparison between groups): equivalent therapeutic effects | expression of PD-L1 on the cell membrane (flow assay) [2]: decreased the expression of PD-L1 | expression of PD-L1 on the cell membrane (flow assay) [3]: decreased the expression of PD-L1 | expression of PD-L1 on the cell membrane (flow assay) [4]: decreased the expression of PD-L1 | expression of PD-L1 on the cell membrane (flow assay) [5]: decreased the expression of PD-L1 | expression of PD-L1 on the cell membrane (flow assay) [6]: decreased the expression of PD-L1 | expression of PD-L1 on the cell membrane (flow assay) [7]: decreased the expression of PD-L1

Reference: patent publication US12599596B2, “Anti-tumor pharmaceutical composition based on immune checkpoint blockade and use thereof” (Shanghai Hui Tian Jin Ze Biotech Co., Ltd., priority 2023, dated 2026)
